Structures can show the parent of a compound that is named as a salt. Each block holds one compound with its values, some of them ahead of it.
Experiments:
Format in all cases: physicochemical
[1] = Solubility of lurasidone or a free form thereof in additives (Table 1), visual check; settings: for solubility at 30 min: thermodynamic from solid
Experimental: Solid-type additives were studied in 10% aqueous solutions thereof and liquid-type ones were studied in 100% solutions thereof. Specifically, to 10% aqueous solution of solid-type additive or to 100% solution of liquid-type one was added lurasidone or a free form thereof so that a concentration thereof was 10 mg/mL, and the mixture was promoted to be dissolved by an operation such as stirring, heating or sonication. It was confirmed by visual check 30 minutes after the operation whether the mixture was perfectly dissolved. In case that the mixture was perfectly dissolved in a concentration of 10 mg/mL, another amount of lurasidone or a free form thereof was added to be evaluated.

[2] = Solubility in water
[3] = Storage stability of 30 mg/mL solutions, residual ratio by reverse phase HPLC (Table 2); settings: aqueous solutions using benzyl alcohol, propylene glycol, N,N-dimethylacetamide and lactic acid; one-month storage at 60° C. and 40° C.
Experimental: Solutions comprising lurasidone and a hydrochloride thereof in a concentration of 30 mg/mL were prepared in formulations in Table 2 to be stored under warming conditions (60° C. and 40° C.). After one-month storage, a residual ratio of principal agent was measured by using reverse phase HPLC. […] In other words, the present invention can provide a solution-type preparation with high stability wherein lurasidone and a free form thereof are solubilized at high concentrations.
Column: YMC-Pack AM-312 (5 μm, 6.0 mmφ×150 mm, manufactured by YMC Co., Ltd.)
Detector: ultraviolet absorptiometer (measured wavelength: 230 nm)
Column temperature: constant temperature around 25° C.
Solution A: 0.025% aqueous trifluoroacetic acid solution/acetonitrile mixture (4:1)
Solution B: 0.025% trifluoroacetic acid in acetonitrile solution

Solubility ([1]; additive No. 21: Squalane): <10000 µg/mL | Solubility ([1]; additive No. 22: Medium-chain triglyceride): <10000 µg/mL | Solubility ([1]; additive No. 23: Benzyl benzoate): <10000 µg/mL | Solubility ([1]; additive No. 24: Anhydrous ethanol): <10000 µg/mL | Solubility ([1]; additive No. 25: Sorbitan sesquioleate): <10000 µg/mL | Solubility ([1]; additive No. 26: 1,3-Butanediol): <10000 µg/mL | Solubility ([1]; additive No. 27: Dipropylene glycol): <10000 µg/mL | Solubility ([1]; additive No. 28: Triethyleneglycol): <10000 µg/mL | Solubility ([1]; additive No. 29: Isopropyl alcohol): <10000 µg/mL | Solubility ([1]; additive No. 32: Isopropyl myristate): <10000 µg/mL | Solubility ([1]; additive No. 34: Monoethanolamine): <10000 µg/mL | Solubility ([1]; additive No. 35: Diethanolamine): <10000 µg/mL | Solubility ([1]; additive No. 36: Triethanolamine): <10000 µg/mL | Solubility ([1]; additive No. 37: Liquid paraffin): <10000 µg/mL | Solubility ([1]; additive No. 38: Toluene): >50000 µg/mL | Solubility ([1]; additive No. 41: N-Methyl-2-pyrrolidone): >50000 µg/mL | Solubility ([1]; additive No. 42: Glycol salicylate): <10000 µg/mL | Solubility ([1]; additive No. 44: Triacetin): <10000 µg/mL | Solubility ([1]; additive No. 46: Sesame oil): <10000 µg/mL | Solubility ([1]; additive No. 47: Castor oil): <10000 µg/mL | Solubility ([1]; additive No. 49: Arachis oil): <10000 µg/mL | Solubility ([1]; additive No. 50: Camellia oil): <10000 µg/mL | Solubility ([1]; additive No. 51: Soybean oil): <10000 µg/mL | Solubility ([1]; additive No. 52: Olive oil): <10000 µg/mL
Compound: O=C1[C@@H]2[C@H]3CC[C@H](C3)[C@@H]2C(=O)N1C[C@@H]1CCCC[C@H]1CN1CCN(c2nsc3ccccc23)CC1 [A free form of lurasidone, N-[4-[4-(1,2-benzisothiazol-3-yl)-1-piperazinyl]-(2R,3R)-2,3-tetramethylene-butyl]-(1′R,2′S,3′R,4′S)-2,3-bicyclo[2,2,1]heptane-dicarboxyimide]

solubility in water [2]: less than several | solubility at 30 min ([1]; aqueous buffer, additive No. 8: Sodium hydrogen carbonate): < 10000 µg/mL | solubility at 30 min ([1]; aqueous with cosolvent or surfactant or cyclodextrin, additive No. 1: Citric acid): < 10000 µg/mL | solubility at 30 min ([1]; aqueous with cosolvent or surfactant or cyclodextrin, additive No. 2: Sodium citrate): < 10000 µg/mL | solubility at 30 min ([1]; aqueous with cosolvent or surfactant or cyclodextrin, additive No. 3: L-Aspartic acid): < 10000 µg/mL | solubility at 30 min ([1]; aqueous with cosolvent or surfactant or cyclodextrin, additive No. 4: L-Arginine): < 10000 µg/mL | solubility at 30 min ([1]; aqueous with cosolvent or surfactant or cyclodextrin, additive No. 5: Soy lecithin): < 10000 µg/mL | solubility at 30 min ([1]; aqueous with cosolvent or surfactant or cyclodextrin, additive No. 6: Polysorbate 80): < 10000 µg/mL | solubility at 30 min ([1]; aqueous with cosolvent or surfactant or cyclodextrin, additive No. 7: D-Mannitol): < 10000 µg/mL | solubility at 30 min ([1]; aqueous with cosolvent or surfactant or cyclodextrin, additive No. 9: β-Cyclodextrin): < 10000 µg/mL | solubility at 30 min ([1]; aqueous with cosolvent or surfactant or cyclodextrin, additive No. 10: Maleic acid): < 10000 µg/mL | solubility at 30 min ([1]; aqueous with cosolvent or surfactant or cyclodextrin, additive No. 12: Calcium bromide): < 10000 µg/mL | solubility at 30 min ([1]; aqueous with cosolvent or surfactant or cyclodextrin, additive No. 13: Ethylene diamine hydrochloride): < 10000 µg/mL | solubility at 30 min ([1]; aqueous with cosolvent or surfactant or cyclodextrin, additive No. 14: Tris): < 10000 µg/mL | solubility at 30 min ([1]; aqueous with cosolvent or surfactant or cyclodextrin, additive No. 16: Nicotinic amide): < 10000 µg/mL | solubility at 30 min ([1]; aqueous with cosolvent or surfactant or cyclodextrin, additive No. 17: Capric acid): < 10000 µg/mL | solubility at 30 min ([1]; oil or lipid, additive No. 11: Ethyl oleate): < 10000 µg/mL | solubility at 30 min ([1]; oil or lipid, additive No. 21: Squalane): < 10000 µg/mL | solubility at 30 min ([1]; oil or lipid, additive No. 22: Medium-chain triglyceride): < 10000 µg/mL | solubility at 30 min ([1]; oil or lipid, additive No. 46: Sesame oil): 1000 to 10000 µg/mL | solubility at 30 min ([1]; oil or lipid, additive No. 47: Castor oil): 1000 to 10000 µg/mL | solubility at 30 min ([1]; oil or lipid, additive No. 49: Arachis oil): 1000 to 10000 µg/mL | solubility at 30 min ([1]; oil or lipid, additive No. 50: Camellia oil): 1000 to 10000 µg/mL | solubility at 30 min ([1]; oil or lipid, additive No. 51: Soybean oil): 1000 to 10000 µg/mL | solubility at 30 min ([1]; oil or lipid, additive No. 52: Olive oil): < 1000 µg/mL | solubility at 30 min ([1]; organic solvent or mixture, additive No. 15: Polyethylene glycol 400): < 10000 µg/mL | solubility at 30 min ([1]; organic solvent or mixture, additive No. 18: Concentrated glycerin): < 10000 µg/mL | solubility at 30 min ([1]; organic solvent or mixture, additive No. 19: Propylene glycol): 30000 to 100000 µg/mL | solubility at 30 min ([1]; organic solvent or mixture, additive No. 20: Lactic acid): > 100000 µg/mL | solubility at 30 min ([1]; organic solvent or mixture, additive No. 30: Benzyl alcohol): > 200000 µg/mL | stability in aqueous solutions (in words) [3]: stable
Compound: O=C1[C@@H]2[C@H]3CC[C@H](C3)[C@@H]2C(=O)N1C[C@@H]1CCCC[C@H]1CN1CCN(c2nsc3ccccc23)CC1 [Lurasidone, N-[4-[4-(1,2-benzisothiazol-3-yl)-1-piperazinyl]-(2R,3R)-2,3-tetramethylene-butyl]-(1′R,2′S,3′R,4′S)-2,3-bicyclo[2,2,1]heptanedicarboxyimide hydrochloride]
